{"source": "paper PMC6158578", "about": "“Optimization and Lead Selection of Benzothiazole Amide Analogs Toward a Novel Antimycobacterial Agent” (Frontiers in Microbiology, 2018)", "key": {"[1]": {"system": "M. fortuitum (n = 11) clinical isolates", "assay": "MIC against rapid-growing NTM clinical isolates", "format": "cell-based", "details": "M. fortuitum (n = 11)"}, "[2]": {"system": "Anaerobes (n > 20 strains)", "assay": "organism not typed", "format": "cell-based"}, "[3]": {"system": "M. peregrinum ATCC 700686", "assay": "MIC, broth microdilution with resazurin (MHB, 3 days)", "format": "cell-based", "details": "Mycolicibacterium peregrinum, ATCC700686; M. peregrinum ATCC 700686; read-out: MIC"}, "[4]": {"system": "S. pyogenes ATCC 19615", "assay": "MIC, spectrum of activity", "format": "cell-based", "details": "Streptococcus pyogenes, ATCC19615; S. pyogenes ATCC 19615; read-out: MIC"}, "[5]": {"assay": "in vitro", "format": "in vitro ADME", "details": "human, microsomes", "procedure": "(§1) ADMET assays were performed through NIAID Preclinical Services and Eurofins. Potential for cytotoxicity was monitored in HepG2 cells after 72 h growth in the presence of test compounds, either prepared as 10-point 3-fold serial dilutions or at a fixed 10 μM concentration. Cell viability was measured using the CellTiter-Glo® Luminescent Cell Viability Assay (Promega) or via fluorescent image analysis. Cytotoxicity was expressed as IC50 or as percent reduction of viable cells relative to a reference compound. Metabolic stability of compounds was evaluated via incubation with human liver microsomes at 37°C and quantitative analysis of parent compound by LC-MS/MS in samples removed at 0, 5, 15, 30, and 45 min (Obach, [1999]). For cytochrome P450 (CYP) inhibition assays, compounds were prepared as a 7-point dilution series and incubated with human liver microsomes in buffer containing 2 mM NADPH and probe substrate. […] Thermodynamic solubility of compounds in aqueous media was determined by incubation in 50 mM potassium phosphate buffer (pH 7.4) for 24 h, followed by HPLC-UV detection of compound in the filtrate (Analiza, Cleveland, OH, United States)."}, "[6]": {"system": "S. pneumoniae ATCC 49619", "assay": "MIC, spectrum of activity", "format": "cell-based", "details": "Streptococcus pneumoniae, ATCC49619; S. pneumoniae ATCC 49619; read-out: MIC"}, "[7]": {"assay": "physchem", "format": "physicochemical", "details": "pH 7.4, aqueous buffer, thermodynamic from solid", "procedure": "as §1"}, "[8]": {"system": "M. abscessus massiliense 119", "assay": "MIC, broth microdilution with resazurin (MHB, 3 days)", "format": "cell-based", "details": "Mycobacteroides abscessus; M. abscessus massiliense 119; read-out: MIC"}, "[9]": {"system": "Mabs 21"}, "[10]": {"assay": "Solubility in corn oil", "details": "oil or lipid"}, "[11]": {"system": "E. coli tolC CGSC 5633 (efflux mutant strain)", "assay": "microbe, parasite or virus in culture", "format": "cell-based", "details": "Escherichia coli"}, "[12]": {"system": "M. abscessus 1", "assay": "MIC in MHB versus 7H9+OADC", "format": "cell-based"}, "[13]": {"system": "P. aeruginosa ATCC 35151", "assay": "MIC, spectrum of activity", "format": "cell-based", "details": "Pseudomonas aeruginosa, ATCC35151; P. aeruginosa ATCC 35151; read-out: MIC"}}, "data": [{"smiles": "CC12CC3CC(C)(C1)CC(C(=O)Nc1nc4ccc(OC(F)(F)F)cc4s1)(C3)C2", "note": "[CRS400226]", "values": [{"measurement": "MIC range", "setting": "[1]", "result": "0.12 to 0.5", "unit": "µg/mL"}, {"measurement": "MIC90", "setting": "[1]; Mycolicibacterium fortuitum, read-out: MIC90", "result": 0.5, "unit": "µg/mL"}, {"measurement": "MIC", "setting": "[2]", "result": "> 16", "unit": "µg/mL"}, {"measurement": "MIC", "setting": "[3]", "result": "≤ 0.06", "unit": "µg/mL"}, {"measurement": "MIC", "setting": "[4]", "result": "> 64", "unit": "µg/mL"}, {"measurement": "microsomal CLint", "setting": "[5]", "result": 124, "unit": "µL/min/mg"}, {"measurement": "MIC", "setting": "[6]", "result": 64, "unit": "µg/mL"}, {"measurement": "solubility at 24 h", "setting": "[7]", "result": "< 3", "unit": "µM"}, {"measurement": "MIC", "setting": "[8]", "result": 0.25, "unit": "µg/mL"}, {"measurement": "lung histology", "setting": "[9]; after 4 weeks of treatment", "result": "only very mild areas of airway-centric inflammation"}, {"measurement": "reduction of lung CFU compared to the vehicle control", "setting": "[9]; intratracheal 25 mg/kg once daily, 5 days per week, 4 weeks, 5% corn oil/saline emulsion", "result": 0.64, "unit": "Log10 CFU"}, {"measurement": "tolerability", "setting": "[9]; up to 4 weeks of treatment, intratracheal 25 mg/kg", "result": "well tolerated"}, {"measurement": "solubility", "setting": "[10]", "result": "≤ 250", "unit": "mg/mL"}, {"measurement": "MIC", "setting": "[11]", "result": "> 64", "unit": "µg/mL"}, {"measurement": "MIC", "setting": "[12]; M. abscessus 1, 7H9 + OADC (5 mg/mL albumin)", "result": 8, "unit": "µg/mL"}, {"measurement": "MIC", "setting": "[12]; M. abscessus 1, MHB", "result": 0.25, "unit": "µg/mL"}, {"measurement": "MIC", "setting": "[13]", "result": "> 64", "unit": "µg/mL"}]}]}
